Measurements reported in patent US11013726B2 (Arbutus Biopharma Corporation, priority 2016, dated 2021).
pEC50: −log10 of the molar value. Where two headings read alike, the source gives them in different places.

Tested on: HBsAg
Assay: HBsAg assay
Assay type: cell-based, hepatitis B virus
Conditions: for EC50: Hepatitis B virus, HepG2.2.15, 144 h, read-out: sAg EC50, μM, HepG2.2.15 cells, day 6; for pEC50: read-out: sAg EC50, HepG2.2.15 cells, day 6
In short: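 HepG2.2.15 cells were treated with serially diluted compounds (0.5% DMSO), with medium and compound renewed after 2-3 days. Secreted HBsAg measured at day 6 by chemiluminescence immunoassay; EC50 from dose-response curves. Viability assessed in parallel by CellTiter-Glo.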

| Compound | EC50 [µM] | pEC50 |
| --- | --- | --- |
| C=Cc1cc2c(cc1OCCCOC)OC[C@@H](C(C)C)n1cc(C(=O)O)c(=O)cc1-2 [Example 48, (R)-7-Isopropyl-3-(3-methoxypropoxy)-11-oxo-2-vinyl-6,7-dihydro-11H-benzo[f]pyrido[1,2-d][1,4]oxazepine-10-carboxylic acid] | 0.004 |  |
| C=C1COc2cc3c(cc2OC1)-c1cc(=O)c(C(=O)O)cn1C(C(C)(C)C)C3 (stereo not drawn) [Example 98, 6-(Tert-butyl)-11-methylene-2-oxo-6,7,11,12-tetrahydro-2H,10H-[1,4]dioxepino[2,3-g]pyrido[2,1-a]isoquinoline-3-carboxylic acid] | 0.1 |  |
| COc1cc2c(cn1)-c1cc(=O)c(C(=O)O)cn1C(C(C)C)C2 (stereo not drawn) [Example 86, 6-isopropyl-3-methoxy-10-oxo-5,10-dihydro-6H-pyrido[2,1-a][2,7]naphthyridine-9-carboxylic acid] | 1 |  |
| CC(C)[C@@H]1COc2cc(OCC(C)(C)CO)c(Cl)cc2-c2cc(=O)c(C(=O)O)cn21 [Example 37, (R)-2-Chloro-3-(3-hydroxy-2,2-dimethylpropoxy)-7-isopropyl-11-oxo-6,7-dihydro-11H-benzo[f]pyrido[1,2-d][1,4]oxazepine-10-carboxylic acid] | 0.012 |  |
| CC(C)[C@@H]1COc2cc(OCCCNC(=O)OC(C)(C)C)c(C3CC3)cc2-c2cc(=O)c(C(=O)O)cn21 [Example 53, (R)-3-(3-((tert-Butoxycarbonyl)amino)propoxy)-2-cyclopropyl-7-isopropyl-11-oxo-6,7-dihydro-11H-benzo[f]pyrido[1,2-d][1,4]oxazepine-10-carboxylic acid] | 0.013 |  |
| COCCCOc1cc2c(cc1Cl)-c1cc(=O)c(NS(=O)(=O)C(F)(F)F)cn1C(C(C)(C)C)C2 (stereo not drawn) [Example 128, N-(6-(Tert-butyl)-10-chloro-9-(3-methoxypropoxy)-2-oxo-6,7-dihydro-2H-pyrido[2,1-a]isoquinolin-3-yl)-1,1,1-trifluoromethanesulfonamide] | 4.7 |  |
| COCCCOc1cc2c(cc1Cl)-c1cc(=NO)c(C(=O)O)cn1C(C(C)(C)C)C2 (stereo not drawn) [Example 145, 6-Tert-butyl-10-chloro-2-(hydroxyimino)-9-(3-methoxypropoxy)-6H,7H-pyrido[2,1-a]isoquinoline-3-carboxylic acid] | 0.15 |  |
| COc1cc2c(cc1F)-c1cc(=O)c(C(=O)O)cn1C(C(C)C)CO2 (stereo not drawn) [Example 15, 2-Fluoro-7-isopropyl-3-methoxy-11-oxo-6,7-dihydro-11H-benzo[f]pyrido[1,2-d][1,4]oxazepine-10-carboxylic acid] | 0.9 |  |
| COCCCOc1cc2c(nc1OC)-c1cc(=O)c(-c3ncn[nH]3)cn1[C@H](C(C)C)C2 [Example 116, (S)-6-Isopropyl-2-methoxy-3-(3-methoxypropoxy)-9-(1H-1,2,4-triazol-5-yl)-5,6-dihydro-10H-pyrido[1,2-h][1,7]naphthyridin-10-one] | 0.009 |  |
| COc1ccc2c(c1)OC[C@@H](C(C)C)n1cc(C(=O)O)c(=O)cc1-2 [Example 17, (R)-7-Isopropyl-3-methoxy-11-oxo-6,7-dihydro-11H-benzo[f]pyrido[1,2-d][1,4]oxazepine-10-carboxylic acid] | 0.88 |  |
| COCCCOc1cc2c(cc1Cl)-c1cc(=O)c(C(=O)O)cn1[C@@H](C(C)C)CO2 [Example 28, (S)-2-Chloro-7-isopropyl-3-(3-methoxypropoxy)-11-oxo-6,7-dihydro-11H-benzo[f]pyrido[1,2-d][1,4]oxazepine-10-carboxylic acid] | 0.46 |  |
| COCCCOc1cc2c(cc1Cl)-c1cc(=O)c(N(C)C(=O)OC(C)(C)C)cn1[C@H](C(C)C)CO2 [Example 141, Tert-butyl (R)-(2-chloro-7-isopropyl-3-(3-methoxypropoxy)-11-oxo-6,7-dihydro-11H-benzo[f]pyrido[1,2-d][1,4]oxazepin-10-yl)(methyl)carbamate] | 1 |  |
| COCCCOc1cc2c(nc1OC)-c1cc(=O)c(-c3nc(C)no3)cn1[C@H](C(C)C)C2 [Example 111, (S)-6-isopropyl-2-methoxy-3-(3-methoxypropoxy)-9-(3-methyl-1,2,4-oxadiazol-5-yl)-5,6-dihydro-10H-pyrido[1,2-h][1,7]naphthyridin-10-one] | 0.29 |  |
| CC(C)[C@@H]1Cc2cc(O)c(O)nc2-c2cc(=O)c(C(=O)O)cn21 [Example 164, (6S)-2,3-Dihydroxy-6-isopropyl-10-oxo-5H,6H-pyrido[1,2-h]1,7-naphthyridine-9-carboxylic acid] | 10 |  |
| COCCCOc1cc2c(nc1OC)-c1cc(=O)c(C(=O)O)cn1C(C)(C(C)C)C2 (stereo not drawn) [Example 155, 6-Isopropyl-2-methoxy-3-(3-methoxypropoxy)-6-methyl-10-oxo-5,10-dihydro-6H-pyrido[1,2-h][1,7]naphthyridine-9-carboxylic acid] | 0.002 |  |
| COc1cc2c(cc1Cl)-c1cc(=O)c(C(=O)O)cn1C(CC(C)C)CO2 (stereo not drawn) [Example 5, 2-Chloro-7-isobutyl-3-methoxy-11-oxo-6,7-dihydro-11H-benzo[f]pyrido[1,2-d][1,4]oxazepine-10-carboxylic acid] | 0.91 |  |
| Cc1cc2c(cc1OCC1CC1)OC[C@@H](C(C)C)n1cc(C(=O)O)c(=O)cc1-2 [Example 49, (R)-3-(Cyclopropylmethoxy)-7-isopropyl-2-methyl-11-oxo-6,7-dihydro-11H-benzo[f]pyrido[1,2-d][1,4]oxazepine-10-carboxylic acid] | 0.049 |  |

| Compound | EC50 [µM] | pEC50 |
| --- | --- | --- |
| COCCOc1cc2c(cc1Cl)-c1cc(=O)c(C(=O)O)cn1[C@H](C(C)C)CO2 (single isomer, unassigned) [Example 30] | 0.053 |  |
| CCc1cc2c(cc1OCC(C)C)OC[C@@H](C(C)C)n1cc(C(=O)O)c(=O)cc1-2 [Example 52, (R)-2-Ethyl-3-isobutoxy-7-isopropyl-11-oxo-6,7-dihydro-11H-benzo[f]pyrido[1,2-d][1,4]oxazepine-10-carboxylic acid] | 0.007 |  |
| Cc1cc2c(cc1OCC(C)C)OC[C@@H](C(C)C)n1cc(C(=O)O)c(=O)cc1-2 [Example 51, (R)-3-Isobutoxy-7-isopropyl-2-methyl-11-oxo-6,7-dihydro-11H-benzo[f]pyrido[1,2-d][1,4]oxazepine-10-carboxylic acid] | 0.015 |  |
| COCCCOc1cc2c(cc1Cl)-c1cc(=O)c(OC)cn1[C@H](C(C)C)CO2 [Example 139, (R)-2-Chloro-7-isopropyl-10-methoxy-3-(3-methoxypropoxy)-6,7-dihydro-11H-benzo[f]pyrido[1,2-d][1,4]oxazepin-11-one] | 14 |  |
| COc1cc2c(nc1Cl)-c1cc(=O)c(C(=O)O)cn1[C@H](C(C)C)CO2 [Example 75, (R)-2-Chloro-7-isopropyl-3-methoxy-11-oxo-6,7-dihydro-11H-dipyrido[1,2-d:2′,3′-f][1,4]oxazepine-10-carboxylic acid] | 0.026 |  |
| COc1cc2c(nc1OC)-c1cc(=O)c(C(=O)O)cn1C(C(C)C)C2 (single isomer, unassigned) [Example 25, 6-Isopropyl-2,3-dimethoxy-10-oxo-5,10-dihydro-6H-pyrido[1,2-h][1,7]naphthyridine-9-carboxylic acid] |  | 8.15 |
| CCc1cc2c(cc1OCC(F)(F)F)OC[C@@H](C(C)C)n1cc(C(=O)O)c(=O)cc1-2 [Example 58, (R)-2-Ethyl-7-isopropyl-11-oxo-3-(2,2,2-trifluoroethoxy)-6,7-dihydro-11H-benzo[f]pyrido[1,2-d][1,4]oxazepine-10-carboxylic acid] | 0.021 |  |
| COc1cc2c(cc1Cl)-c1cc(=O)c(C(=O)O)cn1C(CO)CO2 (stereo not drawn) [Example 9] | 8.6 |  |
| COCCCOc1cc2c(nc1OC)-c1cc(=O)c(C(=O)O)cn1[C@H](C(C)C)CC2 [Example 168, (S)-7-Isopropyl-2-methoxy-3-(3-methoxypropoxy)-11-oxo-5,6,7,11-tetrahydrodipyrido[1,2-a:2′,3′-c]azepine-10-carboxylic acid] | 0.071 |  |
| COCCCNc1cc2c(cc1Cl)-c1cc(=O)c(C(=O)O)cn1[C@H](C(C)C)CO2 [Example 61, (R)-2-Chloro-7-isopropyl-3-((3-methoxypropyl)amino)-11-oxo-6,7-dihydro-11H-benzo[f]pyrido[1,2-d][1,4]oxazepine-10-carboxylic acid] | 0.023 |  |
| CC(C)[C@@H]1COc2cc(O)c(Cl)nc2-c2cc(=O)c(C(=O)O)cn21 [Example 78, (R)-2-Chloro-3-hydroxy-7-isopropyl-11-oxo-6,7-dihydro-11H-dipyrido[1,2-d:2′,3′-f][1,4]oxazepine-10-carboxylic acid] | 5 |  |
| COCCCOc1cc2c(nc1OC)-c1cc(=O)c(-c3nc(-c4ccccc4)no3)cn1[C@H](C(C)C)C2 [Example 112, (S)-6-Isopropyl-2-methoxy-3-(3-methoxypropoxy)-9-(3-phenyl-1,2,4-oxadiazol-5-yl)-5,6-dihydro-10H-pyrido[1,2-h][1,7]naphthyridin-10-one] | 0.87 |  |
| CCOC(=O)c1cn2c(cc1=NO)-c1cc(Cl)c(OC)cc1OCC2C(C)C (stereo not drawn) [Example 150, Ethyl 2-chloro-11-(hydroxyimino)-7-isopropyl-3-methoxy-6,7-dihydro-11H-benzo[f]pyrido[1,2-d][1,4]oxazepine-10-carboxylate] | 24 |  |
| CC(C)C1Cc2sc(Cl)cc2-c2cc(=O)c(C(=O)O)cn21 (stereo not drawn) [Example 85, 2-Chloro-5-isopropyl-9-oxo-4,9-dihydro-5H-thieno[3,2-a]quinolizine-8-carboxylic acid] | 16 |  |
| COCCCOc1cc2c(nc1Cl)-c1cc(=O)c(C(=O)O)cn1C1(CCCC1)CO2 [Example 70, 2′-Chloro-3′-(3-methoxypropoxy)-11′-oxo-6′H,11′H-spiro[cyclopentane-1,7′-dipyrido[1,2-d:2′,3′-f][1,4]oxazepine]-10′-carboxylic acid] | 0.041 |  |
| COc1cc2c(nc1OC)-c1cc(=O)c(C(=O)O)cn1C(C(C)C)C2 (single isomer, unassigned) [Example 24, 6-Isopropyl-2,3-dimethoxy-10-oxo-5,10-dihydro-6H-pyrido[1,2-h][1,7]naphthyridine-9-carboxylic acid] |  | 6.60 |
